Among the test systems are KM20L2 colon; LXFL 529 NSCLC; DLD-1 colon; DMS 273 small cell lung; XF 498 CNS; RXF-631 renal; SNB-78 CNS; SN12K1 renal; P388 leukemia; P388/ADR leukemia.
Common to all, as to test: NCI tumour cell line growth inhibition, 48 h

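Briefly, cells in 96-well plates were exposed to five compound concentrations for 48 h, and endpoints were estimated by linear interpolation. The concentration for 50% growth inhibition is given as GI50. TGI denotes the concentration required for complete inhibition of growth.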 Some results are limits rather than exact numbers.

TGI and GI50 data for 16 compounds are collected here from PubChem BioAssay (NCI).

With `O=C(c1nc2ccc([N+](=O)[O-])cc2[nH]c1=O)C(O)c1ccc2c(c1)OCO2` (stereo unspecified), the TGI in the test on KM20L2 colon, in the test with LXFL 529 NSCLC, with DLD-1 colon and in the test on DMS 273 small cell lung was above 100 µM in each case.

As for `CCOc1ccc2[nH]c3c(C)c4ccncc4c(C)c3c2c1`, the TGI with XF 498 CNS is 2.16 µM; in the test on RXF-631 renal it was 2.61 µM; with KM20L2 colon it was 2.56 µM; with LXFL 529 NSCLC it was 1.98 µM; in the test with DLD-1 colon it was 1.96 µM; in the test with DMS 273 small cell lung, 1.64 µM. The same compound came in with a TGI in the test with SNB-78 CNS of 3.12 µM.

For `COc1ccc(C(=O)O[C@H]2[C@@H]3C=CO[C@@H](OC4OC(CO)C(O)C(O)C4O)[C@@H]3[C@@]3(CO)O[C@@H]23)cc1O` (stereo partly specified), the TGI with XF 498 CNS, in the test on RXF-631 renal, with KM20L2 colon, with LXFL 529 NSCLC, in the test on DLD-1 colon and in the test with DMS 273 small cell lung was above 100 µM in each case. In the test on SNB-78 CNS, this compound registered a TGI above 100 µM.

Regarding `NC(=S)/N=C(/c1nc2ccc(Cl)cc2[nH]c1=O)C(O)c1ccccc1Cl` (stereo unspecified), the TGI in the test with XF 498 CNS, in the test on KM20L2 colon, with LXFL 529 NSCLC, in the test on DLD-1 colon and with DMS 273 small cell lung was above 100 µM each time.

As for `Cc1c2ccncc2cc2c1[nH]c1ccccc12`, the TGI amounted to 1.89 µM in the test with XF 498 CNS; 22.4 µM in the test on KM20L2 colon; 9.44 µM in the test on SN12K1 renal; 5.52 µM with P388 leukemia; 38.5 µM with DLD-1 colon; 4.96 µM with DMS 273 small cell lung. Further, the TGI in the test with P388/ADR leukemia came to 7.46 µM; in the test on SNB-78 CNS, 93.3 µM.

On to `NC1=C(NC(=O)Cc2ccccc2F)C(=O)c2ccccc2C1=O`, for which the TGI in the test with KM20L2 colon is above 100 µM; with DLD-1 colon, 52.9 µM; in the test with DMS 273 small cell lung, above 100 µM.

With `CN(Cc1cnc2nc(N)nc(N)c2n1)c1ccc(C(=O)N[C@@H](CCC(=O)O)C(=O)O)cc1`, the TGI was 184 µM in the test with XF 498 CNS; above 250 µM with KM20L2 colon; 191 µM in the test on SN12K1 renal; 13.8 µM in the test on P388 leukemia; above 250 µM in the test with LXFL 529 NSCLC; above 250 µM in the test with DLD-1 colon. Also, the TGI with DMS 273 small cell lung was found to be 210 µM; with P388/ADR leukemia, 29.4 µM; in the test on SNB-78 CNS, 213 µM. The compound also came in with a GI50 with KM20L2 colon of 0.0025 µM.

Consider `CCC1(N=[N+]=[N-])C(=O)c2ccccc2N(C)C1=O` (stereo unspecified), for which the TGI in the test on KM20L2 colon, in the test with LXFL 529 NSCLC, in the test on DLD-1 colon, in the test on DMS 273 small cell lung and in the test on SNB-78 CNS was above 100 µM each time.

With `[N-]=[N+]=NC(c1cn(C2CC(O)C(CO)O2)c(=O)[nH]c1=O)C(Br)Br` (stereo unspecified), the TGI in the test with KM20L2 colon, in the test on LXFL 529 NSCLC, in the test on DLD-1 colon, with DMS 273 small cell lung and with SNB-78 CNS was above 100 µM in each case.

As to `Brc1ccc(C[P+]2(c3ccccc3)CCCCC2)cc1`, the TGI in the test on KM20L2 colon is above 100 µM; with LXFL 529 NSCLC, above 100 µM; in the test with DLD-1 colon, above 100 µM; with DMS 273 small cell lung, above 100 µM; with SNB-78 CNS, 84.2 µM.

As for `COc1ccc(C(c2c(O)c3ccccc3n(-c3ccccc3)c2=O)c2c(O)c3ccccc3n(-c3ccccc3)c2=O)cc1`, the TGI in the test on XF 498 CNS, with KM20L2 colon, in the test on LXFL 529 NSCLC, with DLD-1 colon, with DMS 273 small cell lung and with SNB-78 CNS was above 100 µM each time.

Consider `C/C=C(/I)CBr`, for which the TGI in the test with XF 498 CNS was 27 µM; in the test on RXF-631 renal, 36.2 µM; with KM20L2 colon it was 88.5 µM; with LXFL 529 NSCLC, 27.6 µM; with DLD-1 colon, 29.2 µM; with SNB-78 CNS it was 93.9 µM.

On to `CCN(CC)CCCNc1ccc2nc(C)n3c4ccc(O)cc4c(=O)c1c23`, for which the TGI with XF 498 CNS was found to be 23.3 µM; with RXF-631 renal, 17.4 µM; in the test with KM20L2 colon, 17.1 µM; with LXFL 529 NSCLC, 19.3 µM; with DLD-1 colon, 16.2 µM; in the test on DMS 273 small cell lung, 13.4 µM. Further, the TGI in the test on SNB-78 CNS turned out to be 19.6 µM.

On to `CN(C(=O)C12C3C4C5C3C1(C(=O)C13C6C7C8C6C1C8C73)C5C42)C(C)(C)C` (stereo unspecified), for which the TGI with XF 498 CNS was above 50 µM; in the test with KM20L2 colon, above 50 µM; in the test with LXFL 529 NSCLC it was above 50 µM; in the test with DLD-1 colon, above 34.7 µM; with DMS 273 small cell lung, above 30 µM; in the test on SNB-78 CNS, above 50 µM.

Regarding `COc1ccc(N=NC(C(=O)c2ccccc2)C(=O)c2ccccc2)cc1`, the TGI in the test on XF 498 CNS is 71.9 µM; in the test with RXF-631 renal, above 100 µM; in the test on KM20L2 colon, 64 µM; in the test with LXFL 529 NSCLC, above 100 µM; with DLD-1 colon, 96.6 µM; in the test with DMS 273 small cell lung, 56.7 µM.

As for `N#CN/C(N)=N/C/N=C(\N)NC#N`, the TGI in the test with RXF-631 renal, with KM20L2 colon, with LXFL 529 NSCLC, in the test on DLD-1 colon, in the test with DMS 273 small cell lung and with SNB-78 CNS was above 100 µM in each case.
